Reference: ChEMBL document CHEMBL3352087 (J Med Chem, 2014)
Values after ≈ are worked out from the molar mass of the structure shown.

What was measured:
[1] = Systemic clearance in CD-1 mouse at 3 mg/kg, iv and 10 mg/kg, po; assay type: ADME, organism-based; conditions: in vivo, read-out: CLH
Mus musculus = assay: Unbound clearance in CD-1 mouse at 3 mg/kg, iv and 10 mg/kg, po; assay type: ADME, organism-based; conditions: in vivo
Plasma [2] = assay: Free plasma concentration in CD-1 mouse at 3 mg/kg, iv and 10 mg/kg, po measured at 1 hr post dose; assay type: ADME, organism-based; conditions: in vivo
Plasma [3] = assay: Free plasma concentration in CD-1 mouse at 3 mg/kg, iv and 10 mg/kg, po measured at 4 hrs post dose; assay type: ADME, organism-based; conditions: in vivo
Brain [4] = assay: Free drug level in CD-1 mouse brain at 3 mg/kg, iv and 10 mg/kg, po measured at 1 hr post dose; assay type: ADME, organism-based; conditions: in vivo
Brain [5] = assay: Free drug level in CD-1 mouse brain at 3 mg/kg, iv and 10 mg/kg, po measured at 4 hrs post dose; assay type: ADME, organism-based; conditions: in vivo
Beta-secretase 1 [6] = molecular target: T1, Beta-secretase 1 (Homo sapiens, UniProt P56817); assay: Inhibition of purified recombinant human BACE1 expressed in CHO cells assessed as uncleaved biotinylated sAPP after 2 hrs by HTRF assay
T1 sequence (P56817 whole entry): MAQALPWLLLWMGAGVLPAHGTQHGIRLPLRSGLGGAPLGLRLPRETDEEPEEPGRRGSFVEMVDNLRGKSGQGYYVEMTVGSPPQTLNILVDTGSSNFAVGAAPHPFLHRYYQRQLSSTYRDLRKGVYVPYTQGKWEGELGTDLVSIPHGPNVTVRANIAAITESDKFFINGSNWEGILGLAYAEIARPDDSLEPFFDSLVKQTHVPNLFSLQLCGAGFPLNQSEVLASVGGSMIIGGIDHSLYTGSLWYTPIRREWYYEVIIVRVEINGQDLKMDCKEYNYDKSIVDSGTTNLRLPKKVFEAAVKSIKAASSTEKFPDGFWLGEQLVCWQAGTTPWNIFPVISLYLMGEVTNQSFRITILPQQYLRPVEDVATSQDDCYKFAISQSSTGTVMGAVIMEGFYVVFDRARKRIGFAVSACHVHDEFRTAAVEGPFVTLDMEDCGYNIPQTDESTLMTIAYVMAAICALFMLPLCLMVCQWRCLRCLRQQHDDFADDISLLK

Beta-secretase 1 [7] = molecular target: T1, Beta-secretase 1; assay: Inhibition of BACE1 in HEK293 cells expressing swedish double mutant APP assessed as amyloid beta (1 to 40) peptide level after 7 hrs by HTRF assay; assay type: cell-based
CHO = assay: Ratio of IC50 for cathepsin D purified from human spleen to IC50 for purified recombinant human BACE1 expressed in CHO cells
MDR1 (human) [8] = assay: (§1) Efflux ratio of permeability from basolateral to apical side to apical to basolateral side in pig LLC-PK1 cells transfected with human MDR1 at 1 uM; assay type: ADME, cell-based, Sus scrofa; conditions: LLC-PK1
MDR1 (human) [9] = assay: (§2) Apparent permeability from apical to basolateral side in pig LLC-PK1 cells transfected with human MDR1; assay type: ADME, cell-based, Sus scrofa; conditions: LLC-PK1
LLC-PK1 [10] = assay: as §1; assay type: ADME, cell-based, Sus scrofa; conditions: llc-pk1, 1 µM, 1 µM
LLC-PK1 [11] = assay: as §2; assay type: ADME, cell-based, Sus scrofa; conditions: llc-pk1
[12] = Fraction unbound in Sprague-Dawley rat brain; assay type: ADME, tissue-based
[13] = Solubility of the compound at pH 7.2; assay type: physicochemical; conditions: buffer
Plasma [14] = assay: Free plasma concentration in Sprague-Dawley rat at 60 mg/kg, po measured at 3 hrs post dose; assay type: ADME, organism-based; design: dose 60 mg/kg, route oral; conditions: in vivo
Brain [15] = assay: Free drug level in Sprague-Dawley rat brain at 60 mg/kg, po measured at 3 hrs post dose; assay type: ADME, organism-based; design: dose 60 mg/kg, route oral; conditions: in vivo
[16] = Ratio of free drug level in brain to plasma of Sprague-Dawley rat at 60 mg/kg, po measured at 3 hrs post dose; assay type: ADME, organism-based; design: dose 60 mg/kg, route oral; conditions: brain and plasma, read-out: BPR
[17] = Drug level in Sprague-Dawley rat CSF at 60 mg/kg, po measured at 3 hrs post dose; assay type: ADME, organism-based, Cerebrospinal fluid; design: dose 60 mg/kg, route oral; conditions: read-out: Drug uptake
Plasma [18] = assay: Free plasma concentration in Sprague-Dawley rat at 60 mg/kg, po measured at 5 hrs post dose; assay type: ADME, organism-based; design: dose 60 mg/kg, route oral; conditions: in vivo
Brain [19] = assay: Free drug level in Sprague-Dawley rat brain at 60 mg/kg, po measured at 5 hrs post dose; assay type: ADME, organism-based; design: dose 60 mg/kg, route oral; conditions: in vivo
[20] = Ratio of free drug level in brain to plasma of Sprague-Dawley rat at 60 mg/kg, po measured at 5 hrs post dose; assay type: ADME, organism-based; design: dose 60 mg/kg, route oral; conditions: brain and plasma, read-out: BPR
[21] = Drug level in Sprague-Dawley rat CSF at 60 mg/kg, po measured at 5 hrs post dose; assay type: ADME, organism-based, Cerebrospinal fluid; design: dose 60 mg/kg, route oral; conditions: read-out: Drug uptake
Rattus norvegicus [22] = assay: Reduction in amyloid beta(1 to 40) in Sprague-Dawley rat CSF at 60 mg/kg, po measured at 3 hrs post dose; assay type: functional; design: scale not given: the % may be the effect or the level left
Rattus norvegicus [23] = assay: Reduction in amyloid beta(1 to 40) in Sprague-Dawley rat CSF at 60 mg/kg, po measured at 5 hrs post dose; assay type: functional; design: scale not given: the % may be the effect or the level left
[24] = Ratio of free drug level in brain of Sprague-Dawley rat at 60 mg/kg, po measured at 3 hrs post dose to IC50 for BACE1 in HEK293 cells expressing swedish double mutant APP; assay type: ADME, organism-based; design: dose 60 mg/kg, route oral; conditions: in vivo
[25] = Ratio of free drug level in brain of Sprague-Dawley rat at 60 mg/kg, po measured at 5 hrs post dose to IC50 for BACE1 in HEK293 cells expressing swedish double mutant APP; assay type: ADME, organism-based; design: dose 60 mg/kg, route oral; conditions: in vivo
[26] = Fraction unbound in CD-1 mouse plasma; assay type: ADME, cell-free
[27] = Fraction unbound in CD-1 mouse brain; assay type: ADME, tissue-based
[28] = Ratio of free drug level in brain to plasma of CD-1 mouse at 3 mg/kg, iv and 10 mg/kg, po measured at 1 hr post dose; assay type: ADME, organism-based; conditions: read-out: BPR
[29] = Ratio of free drug level in brain to plasma of CD-1 mouse brain at 3 mg/kg, iv and 10 mg/kg, po measured at 4 hrs post dose; assay type: ADME, organism-based; conditions: read-out: BPR
[30] = Ratio of free drug level in brain of CD-1 mouse at 3 mg/kg, iv and 10 mg/kg, po measured at 1 hr post dose to IC50 for BACE1 in HEK293 cells expressing swedish double mutant APP; assay type: ADME, organism-based; conditions: hek293, 1 h
[31] = Ratio of free drug level in brain of CD-1 mouse at 3 mg/kg, iv and 10 mg/kg, po measured at 4 hrs post dose to IC50 for BACE1 in HEK293 cells expressing swedish double mutant APP; assay type: ADME, organism-based; conditions: hek293, 4 h

Compound | IC50 (Beta-secretase 1 [6]) | IC50 (Beta-secretase 1 [7]) | efflux ratio at 1 µM (MDR1 (human) [8]) | Papp A→B (MDR1 (human) [9]) | Ratio IC50 (CHO) | also measured
CN1C(=O)[C@]2(N=C1N)c1cc(-c3cccnc3F)ccc1O[C@H]1CCOC[C@@H]12 | – | – | – | – | – | clearance [1]: 70 mL/min/kg; CL free (Mus musculus): 330 mL/min/kg; Cp(f) (Plasma [2]): 320 nM; Cp(f) (Plasma [3]): 75 nM; Drug uptake (Brain [4]): 11 nM; Drug uptake (Brain [5]): 8.4 nM
NC1=N[C@@]2(CO1)c1cc(-c3cccnc3F)ccc1O[C@@H]1CCCO[C@H]12 | 1100 nM | 759 nM | – | – | – | –
NC1=N[C@@]2(CS1)c1cc(-c3cccnc3F)ccc1O[C@@H]1CCCO[C@H]12 | 810 nM | 550 nM | 1.2 | 37 ×10⁻⁶ cm/s | > 250 | –
C[C@]12CCCO[C@@H]1[C@]1(COC(N)=N1)c1cc(-c3cccc(C#N)c3)ccc1O2 [listing 2 of 2 here] | – | – | – | – | 1300 | –
C[C@]12CCCO[C@@H]1[C@]1(COC(N)=N1)c1cc(-c3cccc(C#N)c3)ccc1O2 (racemic) [listing 1 of 2 here] | 98 nM | 100 nM | 3.2 | 30 ×10⁻⁶ cm/s | – | fraction unbound [26]: 0.039; fraction unbound [27]: 0.013; clearance [1]: 34 mL/min/kg; CL free (Mus musculus): 870 mL/min/kg; Cp(f) (Plasma [2]): 54 nM; Cp(f) (Plasma [3]): 35 nM; Drug uptake (Brain [4]): 13 nM; Drug uptake (Brain [5]): 7.5 nM; Kp uu at 1 h [28]: 0.24; Kp uu at 4 h [29]: 0.21; Ratio [30]: 0.13; Ratio [31]: 0.075
C[C@]12CCCO[C@@H]1[C@]1(COC(N)=N1)c1cc(-c3cccc(C#N)c3)ccc1O2 (racemic) [listing 2 of 2 here] | – | – | – | – | 840 | –
CN1C(=O)[C@]2(N=C1N)c1cc(-c3cccnc3F)ccc1O[C@@H]1CCCO[C@H]12 (relative stereo) | 700 nM | 1900 nM | – | – | 19 | –
C[C@@]12CCCO[C@H]1[C@]1(COC(N)=N1)c1cc(-c3cccnc3F)ccc1O2 (relative stereo) | 210 nM | 130 nM | 4.8 | 33 ×10⁻⁶ cm/s | 48 | –
C[C@]12CCCO[C@@H]1[C@]1(COC(N)=N1)c1cc(-c3cncnc3)ccc1O2 (single isomer, unassigned) | 89 nM | 56 nM | 9.8 | 23 ×10⁻⁶ cm/s | > 2200 | –

More lines, in order of falling IC50 (Beta-secretase 1 [6]), values ahead:

IC50 (Beta-secretase 1 [6]) | IC50 (Beta-secretase 1 [7]) | efflux ratio at 1 µM (MDR1 (human) [8]) | Papp A→B (MDR1 (human) [9]) | Compound | Ratio IC50 (CHO) | also measured
76 nM | 60 nM | 6.2 | 29 ×10⁻⁶ cm/s | C[C@]12CCCO[C@@H]1[C@]1(COC(N)=N1)c1cc(-c3cccnc3F)ccc1O2 (relative stereo) | 430 | fraction unbound [26]: 0.11; fraction unbound [27]: 0.04; clearance [1]: 150 mL/min/kg; CL free (Mus musculus): 1300 mL/min/kg; Cp(f) (Plasma [2]): 37 nM; Cp(f) (Plasma [3]): 6.8 nM; Drug uptake (Brain [4]): 6 nM; Drug uptake (Brain [5]): 1.1 nM; Kp uu at 1 h [28]: 0.16; Kp uu at 4 h [29]: 0.16; Ratio [30]: 0.1; Ratio [31]: 0.018
56 nM | 81 nM | 3.1 | 29 ×10⁻⁶ cm/s | C[C@]12CCCO[C@@H]1[C@]1(CSC(N)=N1)c1cc(-c3cncnc3)ccc1O2 (relative stereo) | 1100 | –
55 nM | 93 nM | 1.7 | 5.6 ×10⁻⁶ cm/s | C[C@]12CCCO[C@@H]1[C@]1(COC(N)=N1)c1cc(-c3cc(F)cc(Cl)c3)ccc1O2 (relative stereo) | 530 | –
52 nM | 37 nM | 7.1 | 25 ×10⁻⁶ cm/s | C[C@]12CCCO[C@@H]1[C@]1(COC(N)=N1)c1cc(-c3cncc(Cl)c3)ccc1O2 (racemic) | 2100 | –
51 nM | 48 nM | 3.3 | 12 ×10⁻⁶ cm/s | C[C@]12CCCO[C@@H]1[C@]1(CSC(N)=N1)c1cc(-c3cncc(Cl)c3)ccc1O2 (relative stereo) | 1100 | –
48 nM | 12 nM | 31 | 6.8 ×10⁻⁶ cm/s | CN1C(=O)[C@]2(N=C1N)c1cc(-c3cccnc3F)ccc1O[C@H]1CCCO[C@@H]12 (relative stereo) | 50 | fraction unbound [26]: 0.18; fraction unbound [27]: 0.037; clearance [1]: 110 mL/min/kg; CL free (Mus musculus): 600 mL/min/kg; Cp(f) (Plasma [2]): 120 nM; Cp(f) (Plasma [3]): 36 nM; Drug uptake (Brain [4]): 1.7 nM; Drug uptake (Brain [5]): 1.6 nM; Kp uu at 1 h [28]: 0.014; Kp uu at 4 h [29]: 0.044; Ratio [30]: 0.14; Ratio [31]: 0.13
45 nM | 39 nM | – | – | C[C@]12CCCO[C@@H]1[C@]1(COC(N)=N1)c1cc(-c3cccc(C#N)c3)ccc1O2 [listing 1 of 2 here] | – | Ratio (LLC-PK1 [10]): 3.4; Papp (LLC-PK1 [11]): 19 ×10⁻⁶ cm/s; fraction unbound [12]: 0.014; solubility [13]: 57 µg/mL (≈ 152 µM); Cp(f) (Plasma [14]): 270 nM; Drug uptake(free) (Brain [15]): 88 nM; Kp uu at 3 h [16]: 0.33; concentration at 3 h [17]: 150 nM; Cp(f) (Plasma [18]): 250 nM; Drug uptake(free) (Brain [19]): 80 nM; Kp uu at 5 h [20]: 0.32; concentration at 5 h [21]: 230 nM; Activity (Rattus norvegicus [22]): 63%; Activity (Rattus norvegicus [23]): 69%; Ratio [24]: 2.3; Ratio [25]: 2.1
41 nM | 110 nM | 1.2 | 1.4 ×10⁻⁶ cm/s | C[C@]12CCCO[C@@H]1[C@]1(CSC(N)=N1)c1cc(-c3cc(F)cc(Cl)c3)ccc1O2 (relative stereo) | 830 | –
41 nM | 140 nM | 1.8 | 14 ×10⁻⁶ cm/s | C[C@]12CCCO[C@@H]1[C@]1(CSC(N)=N1)c1cc(-c3cccc(C#N)c3)ccc1O2 (relative stereo) | 680 | –
27 nM | 86 nM | 2 | 31 ×10⁻⁶ cm/s | C[C@]12CCCO[C@@H]1[C@]1(CSC(N)=N1)c1cc(-c3cccnc3F)ccc1O2 (relative stereo) | 890 | –
26 nM | 37 nM | 31 | 6 ×10⁻⁶ cm/s | CN1C(=O)[C@]2(N=C1N)c1cc(-c3cccnc3F)ccc1O[C@]1(C)CCCO[C@H]12 (relative stereo) | 69 | –
13 nM | 5.7 nM | 110 | 5.3 ×10⁻⁶ cm/s | CN1C(=O)[C@]2(N=C1N)c1cc(-c3cccnc3F)ccc1O[C@@]1(C)CCCO[C@@H]12 (relative stereo) | 510 | –
